Assay results from PMC3716696 (PLoS ONE, 2013).
“Also recorded” adds a separate entry of the source. Non-standard residues stand in square brackets, D forms with d. Residues, ends and D or L forms follow the SMILES beside them. *: point of attachment. Sta = CC(C)C[C@H](N)[C@@H](O)CC(=O)O; Isovaleryl = CC(C)CC(=O)*

Experiments:
[1] = tested on: SP-degrading activity of spinal cord membrane lysates; test: SP degradation in spinal cord membrane lysates with general enzyme class inhibitors; type: biochemical, mouse; conditions: membrane lysate 1 mg/mL, 30 min pre-incubation 37°C, SP 100 μM, 1 h 37°C; 1 mM o-phenanthroline, 10 μM pepstatin A, 1 mM PMSF; LC-MS, N = 4
Description: The membrane fraction of spinal cord lysates (1 mg/mL) were pre-incubated at 37°C for 30 minutes separately with each of the following inhibitors (N = 4): 10 μM E-64 (cysteine protease), 1 mM iodoacetamide (cysteine protease), 1 mM o-phenanthroline (metalloprotease), 10 μM pepstatin A (aspartyl protease), 1 mM phenylmethylsulfonyl fluoride (PMSF, serine protease), 1 mM diisopropylfluorophosphate (serine protease), and vehicle (PBS with DMSO for 5% DMSO final concentration in reaction). After the pre-incubation with each inhibitor, SP was added to 100 μM final concentration. The reactions proceeded at 37°C for 1 h. Dried samples were dissolved in 0.1% formic acid (aq) and analyzed by LC-MS/MS for SP-degrading activity (i.e. formation of SP1–7 and SP1–9) using the method outlined in “MALDI-TOF MS and LC-MS/MS analysis of in vitro peptides” section.
(§1) For LC-MS analysis, an Agilent 6220 LC-ESI-TOF instrument was used in the positive mode. A Bio-Bond C18 (5 μm, 150×2.1 mm) column was used together with a precolumn (C18, 3.5 μm, 2×20 mm). Following injection of 25 μL of 5 μM solutions, the samples were trapped at an isocratic flow rate of 0.1 ml/min for five minutes and eluted at a flow rate of 0.25 mL/min via a mobile phase gradient of 2–100% B in 40 min (Mobile Phase A: 0.1% formic acid in water, Mobile Phase B: 0.1% formic acid in acetonitrile). MS analysis was performed with an electrospray ionization (ESI) source. The capillary voltage was set at 4.0 kV and the fragmentor voltage to 100 V. The drying gas temperature was 350°C, the drying gas flow rate was 10 L/min, and the nebulizer pressure was 45 psi. Data was collected in the centroid mode using a mass range of 100–500 Da. The peptides were analyzed by mass extraction of the +3 charge state.

[2] = tested on: SP-degrading / SP1–9-producing activity of spinal cord membrane lysates; test: SP degradation in spinal cord membrane lysates with metalloprotease inhibitors; type: biochemical, mouse; conditions: membrane lysate 1 mg/mL, 30 min pre-incubation 37°C, SP 100 μM, 1 h 37°C, LC-MS, N = 4; for Inhibition of SP degradation (in words): inhibitor 100 μM (TIMP2 4 μM)
Description: All inhibitors were present at 100 μM except for TIMP2, which was present at 4 μM. After the pre-incubation with each inhibitor, either SP or SP1–9 was added to 100 μM final concentration. The reactions proceeded at 37°C for 1 h. Dried samples were dissolved in 0.1% formic acid (aq) and analyzed by LC-MS/MS for SP or SP1–9-degrading activity.
as §1

[3] = N-terminal SP fragment formation in spinal cord soluble and membrane lysates; type: in vitro ADME, mouse; conditions: for Degradation product of SP1–9 in spinal cord lysates: SP1–9 100 μM incubated in spinal cord lysate, 37°C, 1 h, LC-MS (Fig. S3)
Description: Three mouse spinal cords were dounce homogenized in 1.1 mL phosphate buffered saline (PBS) on ice and then sonicated for 15 s at 4°C. Tissue debris was separated by centrifuging the sample at 5,000×g for 20 min at 4°C. The soluble fraction was collected after ultracentrifugation of the sample at 55,000×g for 1 h at 4°C. The membrane pellet that remained was washed 3x with 600 μL PBS. The pellet was then suspended in 100 μL PBS by sonication for 5 s at 4°C. The sample was ultracentrifugation at 55,000×g for 1 h at 4°C and the supernatant was separated as a wash membrane sample. The pellet was suspended in 100 μL of 1 mM sodium deoxycholate (Alfa Aesar) by sonication for 5 s at 4°C then stirred for 30 min at 4°C. Ultracentrifugation of the sample at 55,000×g for 1 h at 4°C separated the supernatant as a 1 mM deoxycholate-solubilized membrane fraction. The remaining pellet was washed 3x with 600 μL 1 mM deoxycholate solution. The pellet was subsequently suspended in 4, 12, and 24 mM deoxycholate following the same cycle. The final pellet was suspended in 100 μL PBS. The protein content in the soluble and membrane lysates was quantified by the Bradford assay. […] The reactions were quenched with neat formic acid and speed vac dried. The samples were dissolved in 0.1% formic acid (aq) and analyzed by MALDI-TOF MS for SP-degrading activity (i.e. formation of SP1–7 and SP1–9) using the method outlined in “MALDI-TOF MS and LC-MS/MS analysis of in vitro peptides” section. […]
MALDI-TOF MS was performed with α-cyano-4-hydroxycinnamic acid as the matrix using 2 μL of a 50 μM reconstituted degradation reaction solution (based on initial SP quantities). […]
To determine the candidate proteolytic pathway or pathways for SP degradation in the spinal cord, we separated tissue lysates from mouse spinal cords into membrane and soluble fractions, incubated them with full-length SP for varying lengths of time (15, 60, 240 min) and then analyzed the quenched reactions by MALDI mass spectrometry to identify any SP fragments that had been produced. […]

MMP9 = conditions: cited from earlier work
[4] = soluble fraction of mouse spinal cord lysates (1 mg/mL); conditions: mouse (C57BL/6), 37°C, up to 240 min
ACE = conditions: cited from earlier work
NEP [5] = conditions: cited from earlier work
[6] = membrane fraction of spinal cord lysates (1 mg/mL) with class-selective inhibitors; conditions: mouse, 37°C, up to 1 h
ECE-2 = conditions: cited from earlier work
[7] = membrane fraction of mouse spinal cord lysates (1 mg/mL); conditions: mouse (C57BL/6), 37°C, up to 240 min
[8] = mouse spinal cord tissue (endogenous peptides, boiled and extracted); conditions: mouse (C57BL/6)
Meprin 1A = conditions: cited from earlier work
Pitrilysin = conditions: cited from earlier work
ECE-1 = conditions: cited from earlier work
[9] = membrane fraction of spinal cord lysates (1 mg/mL) with metalloprotease inhibitors; conditions: mouse, 37°C, up to 1 h
[10] = cell lysates with synthetic peptide; synthetic peptide introduced into a living tissue (pseudo-in vivo); conditions: cited from earlier work
NEP [11] = test: SP degradation and SP levels in WT and Nep–/– spinal cord; type: in vitro ADME, mouse; conditions: 1 mg/mL WT and Nep–/– spinal cord membrane lysates, LC-MS/MS
Description: The levels of SP in WT and Nep^–/– mice spinal cord tissue (N = 4) were compared by IDMS using Top 6 MS/MS as described previously. The degradation of SP was compared in 1 mg/mL WT and Nep^–/– mice spinal cord membrane lysates using LC-MS/MS analysis following the above method.

[12] = membrane fraction of spinal cord lysates (1 mg/mL); conditions: mouse (C57BL/6), 37°C, up to 1 h
[13] = in vivo; cited from earlier work

For O=S(=O)(F)Cc1ccccc1 [PMSF, phenylmethylsulfonyl fluoride], the “Effect on SP1–7 production” value [1] was “regulate SP1-7 production”, the “Inhibition of SP1–9 production” value [1] was “small effect” and the “Inhibition of SP degradation (SP levels vs vehicle)” value (“Inhibition … (SP levels vs vehicle)” below) [1] was “Modest increases”.

With CCCCC[C@H](CC(=O)NO)C(=O)N[C@H](C(=O)N1CCC[C@H]1CO)C(C)C [actinonin] the “Inhibition of SP degradation (in words)” value [2] was “could inhibit” and the “Inhibition of SP1–9 production (in words)” value ([2]; inhibitor 100 μM) was “could inhibit”.

In the case of N=C(N)NCCC[C@H](N)C(=O)N1CCC[C@H]1C(=O)N[C@@H](CCCCN)C(=O)N1CCC[C@H]1C(=O)N[C@@H](CCC(N)=O)C(=O)N[C@@H](CCC(N)=O)C(=O)N[C@@H](Cc1ccccc1)C(=O)N[C@@H](Cc1ccccc1)C(=O)NCC(=O)O [SP1–9] (H-RPKPQQFFG-OH), the “Degradation product of SP1–9 in spinal cord lysates” value [3] is reported as “SP1–7 was produced” and the “Degradation product of SP1–9 in spinal cord lysates” value ([3]; listed as SP 1–9) is reported as “SP1–7 is produced”.

For CC(C)CC(=O)N[C@H](C(=O)N[C@H](C(=O)N[C@@H](CC(C)C)[C@@H](O)CC(=O)N[C@@H](C)C(=O)N[C@@H](CC(C)C)[C@@H](O)CC(=O)O)C(C)C)C(C)C [pepstatin A] (Isovaleryl-VV[Sta]A[Sta]-OH), the “Effect on SP1–7 production” value [1] was “regulate SP1-7 production”, the “Inhibition of SP1–9 production” value [1] was “small effect” and the “Inhibition … (SP levels vs vehicle)” value [1] was “Modest increases”.

With c1cnc2c(c1)ccc1cccnc12 [O-phenanthroline] the “Effect on SP1–7 production” value [1] was “regulate SP1-7 production”, the “Inhibition of SP1–9 production” value [1] was “most potent inhibitor of SP1–9 production; also recorded: strongest inhibitor of SP1–9 production” and the “Inhibition … (SP levels vs vehicle)” value [1] was “most effective compound at inhibiting SP degradation; also recorded: twice as high as the vehicle control”.

In the case of H2N-RPKPQQFFGLM-CONH2, the cleaved bond (MMP9) is given as “G9-L10”, the not cleaved [4] is given as “No discernable fragments appeared in the soluble fraction” and the cleaved bond (ACE) is given as “G9-L10”. For the same compound, the cleaved bond (NEP [5]) was “G9-L10”, the cleaved bond [6] was “G9-L10, major” and the fragment found [6] was “SP1–7”. For the same compound, the cleaved bond (ECE-2) was “G9-L10”, the cleaved bond [7] was “G9-L10, major” and the fragment found [7] was “SP1–10; also recorded: SP1–8; also recorded: SP1–7; also recorded: SP3-11”. The cleaved bond [8] was “G9-L10, major”, the fragment found [8] was “SP1–7, major” and the cleaved bond (Meprin 1A) was “G9-L10”. For the same compound, the cleaved bond (Pitrilysin) was “G9-L10”, the cleaved bond (ECE-1) was “G9-L10” and the cleaved bond [9] was “G9-L10, major”. For the same compound, the fragment found [10] was “SP1–9; also recorded: SP1–8; also recorded: SP1–7; also recorded: SP5–11; also recorded: SP6–11; also recorded: SP7–11; also recorded: SP8–11”.

With CC(C)C[C@H](NP(=O)(O)O[C@@H]1O[C@@H](C)[C@H](O)[C@@H](O)[C@H]1O)C(=O)N[C@@H](Cc1c[nH]c2ccccc12)C(=O)O [phosphoramidon] the “Inhibition of SP degradation (in words)” value [2] was “could inhibit”, the “Inhibition of SP1–9 production (in words)” value ([2]; inhibitor 100 μM) was “could inhibit” and the “Inhibition of SP1–9 production (in words)” value ([2]; inhibitor 100 μM, listed as Phosphoramidon) was “slows SP1–9 production”.

With CSCC[C@H](NC(=O)[C@H](CC(C)C)NC(=O)CNC(=O)[C@H](Cc1ccccc1)NC(=O)[C@H](Cc1ccccc1)NC(=O)[C@H](CCC(N)=O)NC(=O)[C@H](CCC(N)=O)NC(=O)[C@@H]1CCCN1C(=O)[C@H](CCCCN)NC(=O)[C@@H]1CCCN1C(=O)[C@@H](N)CCCN=C(N)N)C(N)=O [SP, Substance P] the “SP fragments formed in soluble fraction of spinal cord lysate” value ([3]; pH 7.34) was “No discernable fragments” and the “SP degradation in NEP+/+ vs NEP–/– spinal cord lysates” value (NEP [11]) was “no significant difference”.

With H-RPKPQQFFG-OH the fragment found [12] was “SP1–7”.

With CNC(=O)[C@H](Cc1c[nH]c2ccccc12)NC(=O)[C@@H](CC(=O)NO)CC(C)C [GM6001] the “Inhibition of SP degradation (in words)” value [2] was “most effective compound at preventing SP degradation; also recorded: least amount of SP degradation”, the “Decrease in SP1–9 production compared to vehicle” value ([2]; inhibitor 100 μM) was “greater than 10 fold” and the “Increase in SP levels compared to vehicle” value ([2]; inhibitor 100 μM) was ~2 fold. For the same compound, the “Inhibition of SP1–9 production (in words)” value ([2]; inhibitor 100 μM) was “best inhibitor of SP1–9 production; also recorded: strongly inhibited; also recorded: potently blocks” and the Bioavailability [13] was “bioavailable”.
